The target of test [1] is T1, Serine/threonine-protein kinase VRK1 (Homo sapiens) (UniProt Q99986).
T1 sequence (whole entry): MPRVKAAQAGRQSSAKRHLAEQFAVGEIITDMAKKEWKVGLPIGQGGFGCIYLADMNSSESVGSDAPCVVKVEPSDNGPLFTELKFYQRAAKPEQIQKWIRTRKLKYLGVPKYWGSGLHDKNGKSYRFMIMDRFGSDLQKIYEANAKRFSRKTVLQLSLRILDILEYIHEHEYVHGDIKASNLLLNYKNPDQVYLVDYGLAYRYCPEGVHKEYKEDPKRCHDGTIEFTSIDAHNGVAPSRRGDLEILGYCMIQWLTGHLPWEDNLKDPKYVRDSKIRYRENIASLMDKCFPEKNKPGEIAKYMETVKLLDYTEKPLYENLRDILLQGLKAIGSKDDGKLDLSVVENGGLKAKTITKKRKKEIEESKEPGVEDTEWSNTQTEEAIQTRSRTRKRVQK

The target in test [2] is Dual specificity protein kinase CLK2 (Homo sapiens) (UniProt P49760).
Dual specificity protein kinase CLK2 (Homo sapiens), sequence (P49760 whole entry, looked up): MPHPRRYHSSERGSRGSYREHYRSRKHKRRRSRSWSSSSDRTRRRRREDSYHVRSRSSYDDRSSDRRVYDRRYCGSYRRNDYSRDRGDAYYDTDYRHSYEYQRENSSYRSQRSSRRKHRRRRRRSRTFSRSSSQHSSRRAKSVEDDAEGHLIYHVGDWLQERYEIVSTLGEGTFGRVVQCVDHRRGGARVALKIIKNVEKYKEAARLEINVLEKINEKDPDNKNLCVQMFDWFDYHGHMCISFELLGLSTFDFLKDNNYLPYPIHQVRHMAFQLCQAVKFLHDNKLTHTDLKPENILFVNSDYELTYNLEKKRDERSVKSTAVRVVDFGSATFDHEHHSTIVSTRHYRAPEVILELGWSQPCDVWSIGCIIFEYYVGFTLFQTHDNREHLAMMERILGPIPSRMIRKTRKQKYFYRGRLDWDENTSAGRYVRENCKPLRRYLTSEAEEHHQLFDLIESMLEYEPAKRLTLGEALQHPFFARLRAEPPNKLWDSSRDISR
The target of test [3] is Mitogen-activated protein kinase 11 (Homo sapiens, UniProt Q15759).
Mitogen-activated protein kinase 11, sequence (Q15759 whole entry): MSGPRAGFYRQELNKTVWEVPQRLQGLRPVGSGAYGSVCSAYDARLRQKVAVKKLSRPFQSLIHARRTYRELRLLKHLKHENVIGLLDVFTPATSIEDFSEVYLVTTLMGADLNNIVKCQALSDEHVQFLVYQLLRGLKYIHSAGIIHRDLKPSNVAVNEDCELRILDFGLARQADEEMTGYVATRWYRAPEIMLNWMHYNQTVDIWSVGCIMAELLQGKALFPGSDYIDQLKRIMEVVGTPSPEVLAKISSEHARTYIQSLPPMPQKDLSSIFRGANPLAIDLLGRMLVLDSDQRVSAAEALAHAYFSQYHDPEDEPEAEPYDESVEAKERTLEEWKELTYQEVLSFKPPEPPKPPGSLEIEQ
The target in test [4] is Calcium/calmodulin-dependent protein kinase type II subunit beta (Homo sapiens) (UniProt Q13554).
Calcium/calmodulin-dependent protein kinase type II subunit beta (Homo sapiens), sequence (Q13554 whole entry): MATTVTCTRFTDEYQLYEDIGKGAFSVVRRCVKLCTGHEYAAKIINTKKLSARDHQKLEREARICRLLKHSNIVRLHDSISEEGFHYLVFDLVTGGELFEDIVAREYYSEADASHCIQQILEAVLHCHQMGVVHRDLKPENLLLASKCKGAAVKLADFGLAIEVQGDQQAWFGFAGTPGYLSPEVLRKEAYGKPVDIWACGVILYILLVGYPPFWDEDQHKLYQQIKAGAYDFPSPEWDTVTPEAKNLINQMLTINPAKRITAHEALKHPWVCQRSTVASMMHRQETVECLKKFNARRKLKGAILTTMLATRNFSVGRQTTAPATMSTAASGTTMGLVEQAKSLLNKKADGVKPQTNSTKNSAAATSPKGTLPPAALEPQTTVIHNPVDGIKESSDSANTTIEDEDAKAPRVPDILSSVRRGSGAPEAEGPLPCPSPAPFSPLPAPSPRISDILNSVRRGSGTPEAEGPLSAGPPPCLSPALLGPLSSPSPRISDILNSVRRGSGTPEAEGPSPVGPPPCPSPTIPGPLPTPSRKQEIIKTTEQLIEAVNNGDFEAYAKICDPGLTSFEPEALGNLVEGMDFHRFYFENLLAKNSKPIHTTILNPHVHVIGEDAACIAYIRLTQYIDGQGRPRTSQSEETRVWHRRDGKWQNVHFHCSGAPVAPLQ
The target of test [5] is Calcium/calmodulin-dependent protein kinase type II subunit delta (Homo sapiens) (UniProt Q13557).
Calcium/calmodulin-dependent protein kinase type II subunit delta (Homo sapiens), sequence (Q13557 whole entry): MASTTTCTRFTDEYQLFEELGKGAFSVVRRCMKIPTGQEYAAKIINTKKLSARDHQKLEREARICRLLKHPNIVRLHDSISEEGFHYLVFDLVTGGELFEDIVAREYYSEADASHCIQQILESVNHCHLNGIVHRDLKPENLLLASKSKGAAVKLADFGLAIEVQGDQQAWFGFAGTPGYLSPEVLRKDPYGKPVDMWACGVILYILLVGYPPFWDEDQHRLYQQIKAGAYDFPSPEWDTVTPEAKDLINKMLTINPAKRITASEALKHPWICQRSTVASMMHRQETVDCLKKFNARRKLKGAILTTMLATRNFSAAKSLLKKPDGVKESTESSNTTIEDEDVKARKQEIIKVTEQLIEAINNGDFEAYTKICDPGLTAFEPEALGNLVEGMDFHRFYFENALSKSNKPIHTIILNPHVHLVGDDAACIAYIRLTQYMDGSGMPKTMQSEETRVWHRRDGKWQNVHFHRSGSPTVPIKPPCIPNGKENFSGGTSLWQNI
Test [6] has as its target T2, Dual specificity mitogen-activated protein kinase kinase 6 (Homo sapiens) (UniProt P52564).
T2 sequence (whole entry): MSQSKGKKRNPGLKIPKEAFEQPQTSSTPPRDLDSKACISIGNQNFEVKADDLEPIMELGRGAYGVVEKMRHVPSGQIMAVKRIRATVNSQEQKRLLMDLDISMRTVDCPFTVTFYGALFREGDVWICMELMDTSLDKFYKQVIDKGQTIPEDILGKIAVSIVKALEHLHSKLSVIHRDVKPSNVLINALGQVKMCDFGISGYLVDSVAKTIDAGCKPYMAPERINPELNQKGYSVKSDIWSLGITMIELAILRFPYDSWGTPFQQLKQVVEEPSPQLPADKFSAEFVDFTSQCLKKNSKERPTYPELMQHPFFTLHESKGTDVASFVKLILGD

Test [7] addresses Calcium/calmodulin-dependent protein kinase type II subunit gamma (Homo sapiens) (UniProt Q13555).
Test [8] concerns the target Glycogen synthase kinase-3 beta (Homo sapiens, UniProt P49841).

Glycogen synthase kinase-3 beta, sequence (P49841 whole entry, looked up): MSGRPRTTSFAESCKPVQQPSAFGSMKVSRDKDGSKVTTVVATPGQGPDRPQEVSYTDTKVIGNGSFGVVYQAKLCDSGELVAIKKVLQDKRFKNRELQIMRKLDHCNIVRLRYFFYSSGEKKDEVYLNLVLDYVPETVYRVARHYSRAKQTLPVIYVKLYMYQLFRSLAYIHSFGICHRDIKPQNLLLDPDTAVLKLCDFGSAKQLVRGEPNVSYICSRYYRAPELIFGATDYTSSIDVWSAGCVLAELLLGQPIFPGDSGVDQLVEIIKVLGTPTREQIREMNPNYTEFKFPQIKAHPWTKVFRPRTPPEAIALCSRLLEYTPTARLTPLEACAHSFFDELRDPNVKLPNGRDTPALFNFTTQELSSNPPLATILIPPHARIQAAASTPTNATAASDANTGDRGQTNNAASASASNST
Calcium/calmodulin-dependent protein kinase type II subunit gamma (Homo sapiens), sequence (Q13555 whole entry): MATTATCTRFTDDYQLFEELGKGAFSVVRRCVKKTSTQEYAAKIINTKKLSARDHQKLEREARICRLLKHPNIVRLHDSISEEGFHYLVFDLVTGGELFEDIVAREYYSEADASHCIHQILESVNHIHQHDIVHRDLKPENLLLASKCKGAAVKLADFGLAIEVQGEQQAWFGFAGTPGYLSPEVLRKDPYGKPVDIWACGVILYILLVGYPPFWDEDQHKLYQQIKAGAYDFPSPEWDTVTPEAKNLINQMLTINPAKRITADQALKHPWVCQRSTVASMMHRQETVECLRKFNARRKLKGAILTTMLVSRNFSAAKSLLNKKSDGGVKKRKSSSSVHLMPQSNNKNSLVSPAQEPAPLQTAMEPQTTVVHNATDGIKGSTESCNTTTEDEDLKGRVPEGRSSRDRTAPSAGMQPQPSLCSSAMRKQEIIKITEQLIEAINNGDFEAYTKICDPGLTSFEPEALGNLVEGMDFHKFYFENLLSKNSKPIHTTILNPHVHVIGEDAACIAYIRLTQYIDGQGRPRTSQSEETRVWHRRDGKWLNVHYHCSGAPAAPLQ

Turning to `CC(C)n1cnc2/c(=N/c3cccc(Cl)c3)nc(NCCO)[nH]c21`, the ΔTm in test [1] is 0.5 °C; in test [2] it was 4.5 °C; in test [3] it was -0.1 °C; in test [4] it was 0.4 °C; in test [5], -0.4 °C; in test [6] it was 0.3 °C. In addition, the ΔTm stood at 1.1 °C in test [7] and 0.8 °C in test [8].
Regarding `O=c1c2ccccc2[nH]c(=S)n1CCN1CCC(=C(c2ccc(F)cc2)c2ccc(F)cc2)CC1` [DIACYLGLYCEROL KINASE INHIBITOR II], the ΔTm in test [1] was -0.2 °C; in test [2], 0.3 °C; in test [3] it was 1.2 °C; in test [4], -1 °C; in test [5] it was -5.4 °C; in test [6], 0.4 °C. Further, the ΔTm in test [7] was -0.5 °C; in test [8], 1.9 °C.
For the molecule `O=C1NC(=O)c2c1c1c3ccccc3n3c1c1c2c2ccccc2n1C1CCC3O1`, the ΔTm in test [1] is -0.1 °C; in test [2], 1.7 °C; in test [3], -0.1 °C; in test [4], 1.2 °C; in test [5] it was -0.2 °C; in test [6], -0.2 °C. Further, the ΔTm in test [7] is 0 °C; in test [8], -0.2 °C.
Take `Nc1cccc(-c2cc3c(Oc4cccc(O)c4)ncnc3[nH]2)c1`: the ΔTm in test [1] worked out at 0.8 °C; in test [2], 0.4 °C; in test [3], 5.4 °C; in test [4] it was 0.5 °C; in test [5], 0.1 °C; in test [6], 2.7 °C. The ΔTm in test [7] was 0.1 °C; in test [8], 7.6 °C.
`O=C1Nc2ccccc2/C1=C\c1ccc[nH]1`: the ΔTm is 0.3 °C in test [1]; 2.1 °C in test [2]; 0.3 °C in test [3]; 0.6 °C in test [4]; -0.5 °C in test [5]; 3.4 °C in test [6]. Moreover, the figures for the ΔTm in test [7] and in test [8] were 1.4 °C and 3.3 °C, respectively.
On to `O=C(O)c1cc(N(Cc2ccccc2O)Cc2cc(O)ccc2O)ccc1O` [LAVENDUSTIN A], for which the ΔTm in test [1] was 0.3 °C; in test [2], 0.5 °C; in test [3] it was 0.3 °C; in test [4], -0.1 °C; in test [5] it was 0.3 °C; in test [6] it was -1.1 °C. Also, the ΔTm in test [7] and in test [8] was -0.1 °C throughout.
`O=C1NC(=O)C(c2cn(CCCn3ccnc3)c3ccccc23)=C1Nc1ccccc1`: the ΔTm in test [1] was found to be 0.6 °C; in test [2], 4.3 °C; in test [3], 0 °C; in test [4], 0.7 °C; in test [5], 0.1 °C; in test [6] it was 0.9 °C. Besides, the results for the ΔTm in test [7] and in test [8] were 0.9 °C and 8.4 °C, respectively.
For `COc1cc2ncnc(Nc3ccc(NC(=O)c4ccccc4)cc3)c2cc1OC` [ANILINOQUINAZOLINE1], the ΔTm was 0.5 °C in test [1]; 0 °C in test [2]; 0.3 °C in test [3]; 0.3 °C in test [4]; 0.4 °C in test [5]; 0.2 °C in test [6]. For the same molecule, the ΔTm in test [7] stood at 0.2 °C; in test [8], 2.9 °C.
On to `CCOC(=O)c1c(C)[nH]c(/C=C2\C(=O)Nc3ccccc32)c1C`, for which the ΔTm in test [1] is -1.7 °C; in test [2] it was 0.6 °C; in test [3] it was -0.4 °C; in test [4] it was 0.7 °C; in test [5], 0.4 °C; in test [6] it was 0 °C. Also, the ΔTm in test [7] is -0.1 °C; in test [8], 2.3 °C.
As to `COc1cc(/C=C/C(=O)CC(=O)/C=C/c2ccc(O)c(OC)c2)ccc1O` [CURCUMIN], the ΔTm is 1 °C in test [1]; 2.6 °C in test [2]; 3.7 °C in test [3]; 1 °C in test [4]; 0.1 °C in test [5]; 4 °C in test [6]. The ΔTm was -0.2 °C in test [7] and 3.4 °C in test [8].
Regarding `O=C1c2ccccc2-[n+]2ccc3c([nH]c4ccccc43)c21` [FASCAPLYSIN CHLORIDE], the ΔTm in test [1] is -1.2 °C; in test [2], -0.4 °C; in test [3], -1.3 °C; in test [4], -2 °C; in test [5], -2.9 °C; in test [6], -0.8 °C. Also, the figures for the ΔTm in test [7] and in test [8] were -1.8 °C and 0.1 °C, respectively.
Take `CN(C)CCCn1cc(C2=C(c3c[nH]c4ccccc34)C(=O)NC2=O)c2ccccc21` [GF-109203]: the ΔTm in test [1] worked out at 0.2 °C; in test [2], 4.1 °C; in test [3] it was 0.7 °C; in test [4] it was 0.9 °C; in test [5], 1.1 °C; in test [6], 1.1 °C. For the same molecule, the ΔTm was 2.9 °C in test [7] and 8.7 °C in test [8].
In the case of `O=C1Nc2ccccc2/C1=C/c1cnc[nH]1`, the ΔTm is 0.5 °C in test [1]; 2.5 °C in test [2]; 0.4 °C in test [3]; 0.8 °C in test [4]; -0.3 °C in test [5]; 4.7 °C in test [6]. Further, the ΔTm is 1.2 °C in test [7] and 7.1 °C in test [8].
With `CN(c1cccnc1)c1cc2c(Nc3ccc(F)c(Cl)c3)c(C#N)cnc2cn1`, the ΔTm in test [2] amounted to 4.3 °C; in test [3] it was 0.7 °C; in test [4], 1.2 °C; in test [5], 2.7 °C; in test [6], 0.4 °C; in test [7] it was 1.9 °C. The ΔTm in test [8] is 6.3 °C.
Turning to `COc1ccc(Cl)cc1NC(=O)Nc1cc(C)nc2ccccc12`, the ΔTm in test [2] was 0.6 °C; in test [3] it was 1.4 °C; in test [4], 0.3 °C; in test [5], 0.9 °C; in test [6] it was -0.3 °C; in test [7], -0.5 °C. The ΔTm in test [8] was 0 °C.
For the molecule `COc1nccc(-c2c(-c3ccc(F)cc3)ncn2[C@H]2CC[C@H](O)CC2)n1`, the ΔTm in test [1] was determined as 1.2 °C; in test [2] it was 0.8 °C; in test [3], 6.6 °C; in test [5], 0.4 °C; in test [6], 0 °C; in test [7], 0.1 °C. For the same molecule, in test [8], the ΔTm amounted to 0.4 °C.
`CN(C)C[C@@H]1CCn2cc(c3ccccc32)C2=C(C(=O)NC2=O)c2cn(c3ccccc23)CCO1` [RUBOXISTAURIN]: the ΔTm amounted to 0.8 °C in test [1]; 4.2 °C in test [2]; 0.3 °C in test [3]; 0.5 °C in test [4]; 0.5 °C in test [6]; 1.6 °C in test [7]. Moreover, the ΔTm in test [8] was 5.9 °C.
On to `O=C(Nc1cccc(Nc2nccc(Nc3cccc(C(F)(F)F)c3)n2)c1)C1CC1` [ANILINOPYRIMIDINE1], for which the ΔTm stood at 0.6 °C in test [2]; 0.8 °C in test [3]; 1 °C in test [4]; 0.6 °C in test [5]; 0.2 °C in test [6]; 0.2 °C in test [7]. For the same molecule, the ΔTm in test [8] amounted to 1.1 °C.
As to `O=C(Nc1cccc(Nc2cc(Nc3cccc(C(F)(F)F)c3)ncn2)c1)C1CC1`, the ΔTm was 0.9 °C in test [2]; 2.8 °C in test [3]; 2.9 °C in test [4]; -2 °C in test [5]; 2.1 °C in test [6]; -2 °C in test [7]. Further, in test [8], the ΔTm worked out at 1.1 °C.
Consider `Cc1ccc(NC2=CC(=O)c3sc(C)nc3C2=O)cc1`, for which the ΔTm in test [2] was -1 °C; in test [3], -0.6 °C; in test [4], -0.6 °C; in test [5], 0.1 °C; in test [6] it was -0.2 °C; in test [7], -2 °C. The ΔTm in test [8] worked out at 0.4 °C.

(Values after ChEMBL document CHEMBL1145498, “A systematic interaction map of validated kinase inhibitors with Ser/Thr kinases” (Proc Natl Acad Sci U S A, 2007).)
